Legend:
[1] = Tested for anticonvulsant effects on audiogenic seizures in DBA/2 mice; administered intra peritonealy; assay type: functional; conditions: Mus musculus
Rattus norvegicus [2] = species on record: Rattus norvegicus; test: Concentration required for 50% inhibitory effect on automatic oxidation in plasma membrane of rat brain homogenates by measuring malondialdehyde and 4-hydroxyalkenals using peroxidized lipid colorimetric assay kit; assay type: functional
[3] = Inhibition of low-threshold (T-type) Calcium [Ca2+] currents in primary cultured rat cerebrocortical neurons using whole-cell voltage-clamp recording technique; assay type: functional
[4] = biological target: Sodium channel alpha subunits; brain (Types I, II, III) (Rattus norvegicus, UniProt P04775+P04774+P08104); test: Inhibition of veratridine-induced depolarization of rat cerebrocortical synaptosomes using a membrane potential sensitive fluorescent dye, rhodamine 6G; assay type: functional, subcellular
D(2) dopamine receptor = D(2) dopamine receptor (Rattus norvegicus, UniProt P61169); test: Concentration required for 50% inhibitory effect on Dopamine receptor D2 determined in competition experiments with [3H]raclopride
Rattus norvegicus [5] = species on record: Rattus norvegicus; test: Concentration required for 50% inhibitory effect on automatic oxidation in plasma membrane of rat brain homogenates by measuring malondialdehyde and 4-hydroxyalkenals using peroxidized lipid colorimetric assay kit.; assay type: functional

D(2) dopamine receptor, sequence (P61169 whole entry): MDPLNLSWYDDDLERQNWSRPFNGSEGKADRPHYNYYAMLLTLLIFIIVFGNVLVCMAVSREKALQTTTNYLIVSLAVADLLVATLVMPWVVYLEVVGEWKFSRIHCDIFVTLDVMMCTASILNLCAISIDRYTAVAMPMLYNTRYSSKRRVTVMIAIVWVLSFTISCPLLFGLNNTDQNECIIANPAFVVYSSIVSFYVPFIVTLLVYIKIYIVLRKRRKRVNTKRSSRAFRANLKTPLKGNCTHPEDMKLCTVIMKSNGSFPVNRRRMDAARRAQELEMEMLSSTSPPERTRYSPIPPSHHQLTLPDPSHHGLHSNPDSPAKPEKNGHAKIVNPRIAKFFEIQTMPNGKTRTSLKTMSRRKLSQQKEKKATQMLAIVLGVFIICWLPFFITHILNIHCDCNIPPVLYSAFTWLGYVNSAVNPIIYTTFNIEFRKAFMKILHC

IC50 (Rattus norvegicus [2]) [nM]	IC50 [3] [nM]	IC50 [4] [nM]	IC50 (D(2) dopamine receptor) [nM]	IC50 (Rattus norvegicus [5]) [nM]	SMILES	ED50 [1] [mg/kg]
310	2000	420	> 10000		CS(=O)(=O)O.CS(=O)(=O)O.Cc1cc(OC[C@@H](O)CN2CCN(c3ccc(Cc4ccc(F)cc4)cc3)CC2)c(C)c(C)c1N	6.5
20000	300	360	1690		CC(C)c1ccc(CN2CCN(C(c3ccc(F)cc3)c3ccc(F)cc3)CC2)c(=O)c(NCCO)c1	14.5
				> 100000	Cc1c(C)c2c(c(C)c1O)CC[C@@](C)(CCC[C@H](C)CCC[C@H](C)CCCC(C)C)O2 [ALPHA-TOCOPHEROL]	
	2200				Fc1ccc(C(c2ccc(F)cc2)N2CCN(C/C=C/c3ccccc3)CC2)cc1 [FLUNARIZINE]	11.4

From ChEMBL document CHEMBL1133636, “Discovery of (2S)-1-(4-amino-2,3,5- trimethylphenoxy)-3-[4-[4-(4- fluorobenzyl)phenyl]-1-piperazinyl]-2-propanol dimethanesulfonate (SUN N8075): a dual Na(+) and Ca(2+) channel blocker with antioxidant activity” (J Med Chem, 2000)
